Like-named read-outs stand apart in the source and are kept apart here.
What was measured:
[1] = system: A. nidulans; assay: antifungal broth dilution susceptibility test, A. nidulans; assay type: cell-based; settings: Aspergillus nidulans, mean of three independent experiments, read-out: Toxic-IC90 Anid
Method: (§1) Cell culture cytotoxicity assays were performed as described using human foreskin fibroblasts ATCC SCRC-1041 [38], lung carcinoma cells A549 [39], colorectal carcinoma cells HCT-116 [40], pancreatic adenocarcinoma cells PNS1 [41] or glioblastoma multiforme cells T98G [42]. Antibacterial activity was determined using a conventional microtiter broth-dilution technique for two reference strains, S. aureus CECT 794 and M. smegmatis DSMZ 43756. Antifungal activity was measured using the reference method antifungal broth dilution susceptibility test (National Committee for Clinical Laboratory Standars) against two species: A. nidulans (Microorganisms Collection of Biomar Microbial Technologies) and C. albicans CECT 1394.

[2] = system: C. albicans CECT 1394; assay: antifungal broth dilution susceptibility test, C. albicans; assay type: cell-based; settings: Candida albicans, CECT1394, mean of three independent experiments, read-out: Toxic-IC90 Calb
Method: as §1

[3] = system: R388 conjugation (R388 derivative pJC01); parameters: method as in PMID 26330514; settings: read-out: COIN-IC50; cited from earlier work
[4] = system: S. aureus CECT 794; assay: antibacterial activity, microtiter broth-dilution, S. aureus; assay type: cell-based; settings: Staphylococcus aureus, CECT794, mean of three independent experiments, read-out: Toxic-IC90 Saur
Method: as §1

[5] = system: PSN1 pancreatic adenocarcinoma cells; assay: cell culture cytotoxicity assay, PSN1; assay type: cell-based; settings: Homo sapiens, mean of three independent experiments, read-out: Toxic-IC50 PSN1
Method: as §1

[6] = system: colorectal carcinoma cells HCT-116; assay: cell culture cytotoxicity assay, HCT-116; assay type: cell-based; settings: Homo sapiens, mean of three independent experiments, read-out: Toxic-IC50 HCT-116
Method: as §1

[7] = system: glioblastoma multiforme cells T98G; assay: cell culture cytotoxicity assay, T98G; assay type: cell-based; settings: Homo sapiens, mean of three independent experiments, read-out: Toxic-IC50 T98G
Method: as §1

[8] = system: lung carcinoma cells A549; assay: cell culture cytotoxicity assay, A549; assay type: cell-based; settings: Homo sapiens, mean of three independent experiments, read-out: Toxic-IC50 A549
Method: as §1

[9] = system: human foreskin fibroblasts ATCC SCRC-1041; assay: cell culture cytotoxicity assay, fibroblasts; assay type: cell-based; settings: Fibroblast, mean of three independent experiments, read-out: Toxic-IC50 Fibroblasts
Method: as §1

[10] = system: M. smegmatis DSMZ 43756; assay: antibacterial activity, microtiter broth-dilution, M. smegmatis; assay type: cell-based, Mycobacterium smegmatis; settings: Mycolicibacterium smegmatis, DSMZ43756, mean of three independent experiments, read-out: Toxic-IC90 Msme
Method: as §1

[11] = system: bacterial and fungal strains; assay: antibacterial and antifungal activities (summary statement); assay type: cell-based; settings: summary of Table 1; read-out: toxic-IC90 values, antibacterial and antifungal activities
Method: as §1

[12] = system: IncW plasmid R388 (derivative pSU2007::Tnlux) conjugation; settings: COIN threshold; cited from earlier work
[13] = system: Paecilomyces variotii; parameters: method as in PMID 24605144; settings: at a concentration of 185 μM; cited from earlier work
[14] = system: Magnaporthe oryzae; settings: read-out: toxic-IC50, inhibition of conidial germination; cited from earlier work
[15] = system: Phytophthora infestans; settings: at comparable concentrations; cited from earlier work
[16] = system: Brevibacillus brevis; parameters: method as in PMID 24605144; settings: at a concentration of 185 μM; cited from earlier work
[17] = system: IncW plasmid R388 conjugation; assay: plate-conjugation assay, R388; assay type: cell-based, E. coli; settings: for COIN activity on R388 conjugation (CF): 1 mM
Method: (§2) For the plate-mating procedure, a 200 μl mixture of equal volumes of donor and recipient cultures previously washed, both in stationary phase, was centrifuged and resuspended in 15 μl LB-broth. 5 μl of this mixture were placed on top of 96-well microtiter plate wells containing 150 μl LB-agar (± COINs) and conjugation was allowed to proceed, in general, for 1 h at 37°C. The temperature-sensitive IncH plasmid drR27 was allowed to conjugate for 2 h at 25°C [35]. Bacteria were then resuspended in 150 μl M9 broth and corresponding dilutions were plated on selective media. CF was calculated as the number of transconjugant cells per donor, whereas MF was calculated as the number of cells receiving the mobilizable plasmid per donor. Since this type of frequency data were log-normally distributed, means are calculated using decimal logarithms of data.

[18] = system: superoxide anion production; settings: cited from earlier work
[19] = system: Mucor miehei; parameters: method as in PMID 24605144; settings: at a concentration of 185 μM; cited from earlier work
[20] = system: R388 conjugation (R388 derivative pJC01); assay: fluorescence-based HTC assay; assay type: cell-based, E. coli; settings: for IC50: Escherichia coli, read-out: COIN-IC50
[21] = system: HeLaS3 cells; parameters: method as in PMID 24605144; settings: at a concentration of 185 μM; cited from earlier work
[22] = system: Botrytis cinerea; parameters: method as in PMID 24605144; settings: at comparable concentrations; cited from earlier work
[23] = system: IncFII plasmid R100-1 conjugation; assay: plate-conjugation assay, R100-1; assay type: cell-based, E. coli; settings: 0.4 mM
Method: as §2

[24] = system: C. albicans; parameters: method as in PMID 26055397; settings: cited from earlier work
[25] = system: Raji; parameters: method as in PMID 26055397; settings: at 100 μM; cited from earlier work
[26] = system: IncP plasmid conjugation; assay: plate-conjugation assay, IncP plasmids; assay type: cell-based, E. coli; settings: 0.4 mM
Method: as §2

[27] = system: K562; parameters: method as in PMID 26055397; settings: at 100 μM; cited from earlier work
[28] = system: U937; parameters: method as in PMID 26055397; settings: at 100 μM; cited from earlier work
[29] = system: Klebsiella pneumoniae; parameters: method as in PMID 26055397; settings: cited from earlier work
[30] = system: Enterococcus faecalis; parameters: method as in PMID 26055397; settings: cited from earlier work
[31] = system: IncN plasmid conjugation; assay: plate-conjugation assay, IncN plasmids; assay type: cell-based, E. coli; settings: 0.4 mM
Method: as §2

[32] = system: Proteus mirabilis; parameters: method as in PMID 26055397; settings: cited from earlier work
[33] = system: mobilization of ColE1; assay: mobilization by plate-conjugation assay, ColE1; assay type: cell-based, E. coli; settings: 0.4 mM
Method: as §2

[34] = system: mobilization of RSF1010; assay: mobilization by plate-conjugation assay, RSF1010; assay type: cell-based, E. coli; settings: 0.4 mM; helper plasmid pRL443
Method: as §2

[35] = system: mobilization of CloDF13; assay: mobilization by plate-conjugation assay, CloDF13; assay type: cell-based, E. coli; settings: 0.4 mM; helper plasmid R388, pOX38 or R100-1
Method: as §2

[36] = system: Bacillus cereus; parameters: method as in PMID 26055397; settings: cited from earlier work
[37] = system: Jurkat; parameters: method as in PMID 26055397; settings: at 100 μM; cited from earlier work

Row | Compound | IC90 [1] [µM] | IC90 [2] [µM] | IC90 [4] [µM] | IC50 [5] [µM] | IC50 [6] [µM] | IC50 [7] [µM] | IC50 [8] [µM] | IC50 [9] [µM] | IC90 [10] [µM] | IC90 [11] [µM] | inhibition of superoxide anion production [18] | other results
1 | CCCCCCCCCCCCCC#CC(=O)O [2-HDA, 2-hexadecynoic acid] | 8 | < 4 | 30 | 80 | 40 | 100 | 40 | 100 | 8 |  |  | IC50 [3]: ~50 µM
2 | CCCCCCCCCCCCCCCC#CC(=O)O [2-ODA, 2-octadecynoic acid] | 220 | 220 | 350 | 180 | 70 | 150 | 90 | 90 | 7 |  |  | IC50 [3]: ~50 µM
3 | CCCCC/C=C\C/C=C\CCCCCCCC(=O)O [Linoleic acid] | > 360 | > 360 | > 360 | 90 | 180 | 180 | 90 | 300 | 360 | > 100 |  | IC50 [12]: ~50 µM
4 | CCCCCCCC/C=C\CCCCCCCC(=O)O [Oleic acid] | > 220 | > 220 | > 420 | 80 | 180 | 180 | 40 | 350 | > 420 | > 100 |  | IC50 [12]: ~50 µM
5 | Cc1ccc2c(c1/C=C/C=C/C(=O)O)C(C)CC(C)C2 (centres unmarked) [TZA-A, tanzawaic acid A] | > 230 | > 230 | 230 | 90 | 70 | 90 | 60 | 190 | 230 | > 100 | inhibitors of superoxide anion production | activity against Paecilomyces variotii [13]: weak activity; IC50 [14]: 37 µM; effect on germination of Phytophthora infestans [15]: not affected; activity against Brevibacillus brevis [16]: weak activity; COIN activity on R388 conjugation (CF) ([17]; plate-conjugation assay): inhibited R388 conjugation to levels similar to TZA-B; activity against Mucor miehei [19]: weak activity; IC50 [20]: ~50 µM; activity against HeLaS3 cells [21]: weak activity; effect on germination of Botrytis cinerea [22]: not affected
6 | CC1CC(C)C2C(C=CC(C)C2C=CC=CC(=O)O)C1 (centres unmarked) [TZA-B, tanzawaic acid B] | > 230 | > 230 | 120 | 180 | 90 | 180 | 90 | 180 | 120 | > 100 | inhibitor of superoxide anion production | inhibition of conjugation [23]: ~100 fold; antimicrobial activity, concentration below which no effect [24]: ≥ 364 µM; response of Raji cells [25]: no response; effect on conjugation [26]: not affected; response of K562 cells [27]: no response; response of U937 cells [28]: no response; antimicrobial activity, concentration below which no effect [29]: ≥ 364 µM; antimicrobial activity, concentration below which no effect [30]: ≥ 364 µM; effect on conjugation [31]: not affected; inhibition of conjugation ([17]; 0.4 mM, IncW plasmid R388): ~100 fold; R388 conjugation (relative CF) ([17]; 0.4 mM, plate-conjugation assay): 2 ± 2%; antimicrobial activity, concentration below which no effect [32]: ≥ 364 µM; R388 conjugation (relative CF) ([20]; 0.4 mM, relative to control without COINs (100%)): 2%; IC50 [20]: ~50 µM; effect on mobilization (MF) ([33]; helper plasmid R388, pOX38 or R100-1): affected; effect on mobilization (MF) ([33]; helper plasmid pRL443): unaffected; effect on mobilization (MF) [34]: unaffected; effect on mobilization (MF) [35]: affected; antimicrobial activity, concentration below which no effect [36]: ≥ 364 µM; response of Jurkat cells [37]: no response
7 | CC1C=CC2CC(C)(O)CC(C)C2C1/C=C/C=C/C(=O)O (centres unmarked) [TZA-E] |  |  |  |  |  |  |  |  |  |  | inhibitors of superoxide anion production | COIN activity on R388 conjugation (CF) ([17]; plate-conjugation assay): did not show significant COIN activity
